Test results published in patent publication US12668599B2, “Heterobifunctional compounds and methods of treating disease” (Halda Therapeutics OpCo, Inc., priority 2023, dated 2026).

What was measured:
VCaP cells = test: Cellular growth inhibition assay for VCaP cells (CellTiter-Glo 2.0, 72 hours); format: cell-based, human; settings: for GI50: CellTiter-Glo 2.0; for Ratio of GI50's: GI50 of the top compound in the pair divided by GI50 of the lower compound
Method: Exemplary compounds were tested for ability to inhibit the proliferation of VCaP cells. VCap cells are a commercially available human prostate cancer cell line.
VCaP cells were purchased from American Type Cell Culture (ATCC Cat #CRL2876) and then seeded on poly-D-lysine coated, black clear-bottom 384-well plates at 5000/well in 25 μL Dulbecco's Modified Eagle Medium (DMEM) supplemented with 10% w/w Fetal bovine serum (FBS) and 1% w/w Pen-Strep. Pen-Strep is a commercially available mixture of penicillin G and streptomycin, which is used in mammalian cell culture media to prevent bacterial contamination. Dulbecco's Modified Eagle Medium (DMEM) supplemented with 10% w/w fetal bovine serum (FBS) and 1% w/w Pen-Strep is herein referred to as Treatment Medium. Following seeding of cells in the plates, the plates were spun at 300×g for 30 seconds, then equilibrated to room temperature for 30 minutes, and then deposited in a humidified tissue culture incubator maintained at 37° C. with 5% CO2.
(§1) At 24 hours after seeding of the cells, dilutions of test compound were prepared in DMSO and dissolved in Treatment Medium, to achieve a final DMSO concentration of 0.5% w/w, thereby providing the Test Compound Solution. A 25 μL aliquot of the Test Compound Solution was added to cells in the well plates. An equal volume of a solution containing DMSO and Treatment Medium was used as a negative control. Following treatment of cells with Test Compound Solution or said equal volume of a solution containing DMSO and Treatment Medium, the plates were spun at 300×g for 30 seconds, and then left in an incubator for 72 hours.
(§2) At the end of the treatment duration, cell viability was quantified with CellTiter-Glo 2.0 reagent (Promega Cat #G9243). For this purpose, plates were equilibrated to room temperature for 30 minutes, and then 25 μL of CellTiter-Glo 2.0 reagent was added to cells in the plate wells. Plates were then agitated on a shaker for two minutes at 500 rpm and subsequently incubated at room temperature for 10 minutes. Following incubation, the plates were spun at 3000×g for 30 seconds, then sealed with an optical adhesive cover, and luminescence readings were measured with an En Vision Plate Reader.
(§3) Data was normalized using zero luminescence for baseline. A four-parameter non-linear regression curve fit was applied to dose-response data in GraphPad Prism data analysis software to determine the half-maximal growth inhibitory concentration (GI50) for each test compound.

[1] = tested on: T-Rex 293 cell line SC3 cells having increased expression of androgen receptor protein due to exposure to doxycycline; test: Cellular growth inhibition, T-Rex 293 SC3 cells with doxycycline-induced androgen receptor (CellTiter-Glo 2.0, 72 hours); format: cell-based; settings: for GI50: T-Rex 293 SC3 cells with 10 ng/ml doxycycline (increased androgen receptor expression), 72 hours, CellTiter-Glo 2.0; for Ratio of GI50's: GI50 of the top compound in the pair divided by GI50 of the lower compound, T-Rex 293 SC3 cells with doxycycline-induced androgen receptor
Method: (§4) Ability of the test compounds to inhibit proliferation of the foregoing cell types was evaluated according to the procedures set forth below.
(§5) The doxycycline-inducible androgen receptor protein expressing cell line was established using the following protocol: T-Rex 293 cells were purchased from Invitrogen (Cat #R71007) and transfected using Lipofectamine 2000 with the wild-type androgen receptor protein sequence cloned into the pcDNA4/TO vector. Transfected cells were selected using 400 μg/mL Zeocin (Invitrogen Cat #R25001). Following selection, single clones were raised and maintained in Dulbecco's Modified Eagle Medium (DMEM) supplemented with 10% w/w Tetracycline-free fetal bovine serum (FBS) and 250 μg/mL Zeocin. Clones were analyzed for expression of androgen receptor protein in the presence and absence of 10 ng/ml doxycycline (Sigma Cat #D9891), and a single doxycycline-inducible clone (hereinafter “SC3”) was selected for use in downstream assays.
(§6) The SC3 cells were seeded on poly-D-lysine coated, black clear-bottom 384-well plates at 2500/well, in 25 μL Phenol Red Free Dulbecco's Modified Eagle Medium (DMEM) supplemented with 10% w/w charcoal-dextran treated fetal bovine serum (FBS) and 1% w/w pen-strep, with or without 10 ng/ml doxycycline. Pen-Strep is a commercially available mixture of penicillin G and streptomycin, which is used in mammalian cell culture media to prevent bacterial contamination. Phenol Red Free Dulbecco's Modified Eagle Medium (DMEM) supplemented with 10% w/w charcoal-dextran treated fetal bovine serum (FBS) and 1% w/w pen-strep, with or without 10 ng/mL doxycycline is herein referred to as Treatment Medium. Following seeding of cells in the plates, the plates were spun at 300×g for 30 seconds, then equilibrated to room temperature for 30 minutes, and then deposited in a humidified tissue culture incubator maintained at 37° C. with 5% CO2.
as §1, §2, §3

[2] = tested on: T-Rex 293 cell line SC3 cells lacking increased expression of androgen receptor protein; test: Cellular growth inhibition, T-Rex 293 SC3 cells without doxycycline (CellTiter-Glo 2.0, 72 hours); format: cell-based; settings: T-Rex 293 SC3 cells not exposed to doxycycline (no increased androgen receptor expression)
Method: as §4, §5, §6, §1, §2, §3

Row | Structure (SMILES) | GI50 (VCaP cells; Homo sapiens, VCaP, 72 h) [nM] | Ratio of GI50's (VCaP cells) | GI50 [1] [nM] | GI50 ([2]; 72 h) [nM] | Ratio of GI50's [1] | also measured
1 | COc1cc(O[C@H]2CC[C@H](NC(=O)c3ccc(N4CCC5(CCCN(c6ccc(C7=N[C@@H](C)c8nnc(C)n8-c8sc(C)c(C)c87)cc6)C5)C4)nn3)CC2)ccc1C#N (stereo partly drawn) [Compound I-99] |  |  | < 500 |  |  | GI50 (VCaP cells; 72 hours): < 500 nM; GI50 [2]: < 500 nM
2 | Cc1sc2c(c1C)C(c1ccc(CC3CC4(CCN(c5ncc(C(=O)N[C@H]6C(C)(C)[C@H](Oc7ccc(C#N)c(Cl)c7)C6(C)C)cn5)CC4)C3)cc1)=N[C@@H](Cc1ncco1)c1nnc(C)n1-2 [C, reference compound] |  | 2.6 |  |  | 22.0 | 
3 | Cc1sc2c(c1C)C(c1ccc(C#CC3CC4(C3)CN(c3ccc(C(=O)N[C@H]5CC[C@H](Oc6ccc(C#N)c(Cl)c6)CC5)nn3)C4)cc1F)=NC(Cc1ncco1)c1nnc(C)n1-2 (stereo partly drawn) [K, reference compound] |  | 1.5 |  |  | 2.0 | 
4 | Cc1sc2c(c1C)C(c1ccc(C3CCC4(CC3)CCN(c3ccc(C(=O)N[C@H]5CC[C@H](Oc6ccc(C#N)c(Cl)c6)CC5)nn3)C4)cc1)=N[C@@H](Cc1ncco1)c1nnc(C)n1-2 (stereo partly drawn) [J, reference compound] |  | 3.0 |  |  | 3.2 | 
5 | Cc1sc2c(c1C)C(c1ccc(CC3CC4(CCN(c5ccc(C(=O)N[C@H]6CC[C@H](Oc7ccc(C#N)c(Cl)c7)CC6)nn5)CC4)C3)cc1)=N[C@@H](Cc1ncco1)c1nnc(C)n1-2 [F, reference compound] |  | 1.9 |  |  | 3.8 | 
6 | Cc1sc2c(c1C)C(c1ccc(C3CCC4(CC3)CCN(c3ncc(C(=O)N[C@H]5C(C)(C)[C@H](Oc6ccc(C#N)c(Cl)c6)C5(C)C)cn3)C4)cc1)=N[C@@H](Cc1ncco1)c1nnc(C)n1-2 [D, reference compound] |  | 6.5 |  |  | 3.8 | 
7 | Cc1sc2c(c1C)C(c1ccc(N3CCC4(CC3)CCN(c3ccc(C(=O)N[C@H]5CC[C@H](Oc6ccc(C#N)c(Cl)c6)CC5)nn3)C4)cc1)=N[C@@H](C)c1nnc(C)n1-2 [H, reference compound] |  | 1.8 |  |  | 8.4 | 
8 | Cc1sc2c(c1C)C(c1ccc(OC3CC4(CCN(c5ccc(C(=O)N[C@H]6CC[C@H](Oc7ccc(C#N)c(Cl)c7)CC6)nn5)CC4)C3)cc1)=N[C@@H](Cc1ncco1)c1nnc(C)n1-2 [E, reference compound] |  | 4.4 |  |  | 4.7 | 
9 | COc1cc(O[C@H]2CC[C@H](NC(=O)c3ccc(N4CCC5(CCCN(c6ccc(C7=N[C@@H](C)c8nnc(C)n8-c8sc(C)c(C)c87)cc6)C5)C4)nn3)CC2)ccc1C#N (stereo partly drawn) [Compound I-98] |  |  |  | < 500 |  | 
10 | COc1cc(O[C@H]2CC[C@H](NC(=O)c3ccc(N4CCCC5(CCN(c6ccc(C7=N[C@@H](C)c8nnc(C)n8-c8sc(C)c(C)c87)cc6)CC5)C4)nn3)CC2)ccc1C#N [Compound I-26] |  |  | < 500 | < 500 |  | 
11 | Cc1sc2c(c1C)C(c1ccc(C#CC3CC4(C3)CN(c3ccc(C(=O)N[C@H]5CC[C@H](Oc6ccc(C#N)c(Cl)c6)CC5)nn3)C4)cc1)=N[C@@H](Cc1ncco1)c1nnc(C)n1-2 [G, reference compound] |  | 1.5 |  |  | 1.7 | 
12 | COc1cc(O[C@H]2CC[C@H](NC(=O)c3ccc(N4CCC5(CCN(c6ccc(C7=N[C@@H](C)c8nnc(C)n8-c8sc(C)c(C)c87)cc6)CC56CCC6)C4)nn3)CC2)ccc1C#N (stereo partly drawn) [Compound I-132] |  |  |  | < 500 |  | 

Second part, led by results:

Row | GI50 (VCaP cells; Homo sapiens, VCaP, 72 h) [nM] | Ratio of GI50's (VCaP cells) | Structure (SMILES) | GI50 [1] [nM] | GI50 ([2]; 72 h) [nM] | Ratio of GI50's [1] | also measured
13 | < 500 |  | COc1cc(O[C@H]2CC[C@H](NC(=O)c3ccc(N4CCC5(CCC(c6ccc(C7=N[C@@H](C)c8nnc(C)n8-c8sc(C)c(C)c87)c(F)c6)CC5)C4)nn3)CC2)ccc1C#N (single isomer, unassigned) [Compound I-58] | < 500 | < 500 |  | 
14 | 500 to 1500 |  | COc1cc(O[C@H]2CC[C@H](NC(=O)c3ccc(N4CCC5(CCC(c6ccc(C7=N[C@@H](C)c8nnc(C)n8-c8sc(C)c(C)c87)c(Cl)c6)CC5)C4)nn3)CC2)ccc1C#N (single isomer, unassigned) [Compound I-64] | < 500 | < 500 |  | 
15 | < 500 |  | COc1cc(O[C@H]2CC[C@H](NC(=O)c3ccc(N4CC5(CC(C#Cc6ccc(C7=N[C@@H](C)c8nnc(C)n8-c8sc(C)c(C)c87)cc6)C5)C4)nn3)CC2)ccc1C#N [Compound I-40, N-[4-(4-cyano-3-methoxy-phenoxy)cyclohexyl]-6-[6-[2-[4-[(9S)-4,5,9,13-tetramethyl-3-thia-1,8,11,12-tetrazatricyclo[8.3.0.0^2,6]trideca-2 (6),4,7,10,12-pentaen-7-yl]phenyl]ethynyl]-2-azaspiro[3.3]heptan-2-yl]pyridazine-3-carboxamide] | < 500 | < 500 |  | 
16 | < 500 |  | COc1cc(O[C@H]2CC[C@H](NC(=O)c3ccc(N4CCC5(CCC(c6ccc(C7=N[C@@H](C)c8nnc(C)n8-c8sc(C)c(C)c87)cc6)CC5)C4)cn3)CC2)ccc1C#N (stereo partly drawn) [Compound I-53] | < 500 | < 500 |  | 
17 | < 500 |  | COc1cc(O[C@H]2CC[C@H](NC(=O)c3ccc(N4CCC5(CCN(c6ccc(C7=N[C@@H](C)c8nnc(C)n8-c8sc(C)c(C)c87)cc6OC)CC5)C4)nn3)CC2)ccc1C#N [Compound I-90] | < 500 | < 500 |  | 
18 |  | 1 | COc1cc(O[C@H]2CC[C@H](NC(=O)c3ccc(N4CCC5(CCN(c6ccc(C7=N[C@@H](C)c8nnc(C)n8-c8sc(C)c(C)c87)cc6)CC5)C4)nn3)CC2)ccc1C#N [Compound I-17, N-[4-(4-cyano-3-methoxy-phenoxy)cyclohexyl]-6-[8-[4-[(9S)-4,5,9,13-tetramethyl-3-thia-1,8,11,12-tetrazatricyclo[8.3.0.0^2,6]trideca-2 (6),4,7,10,12-pentaen-7-yl]phenyl]-2,8-diazaspiro[4.5]decan-2-yl]pyridazine-3-carboxamide] | < 500 |  | 1 | GI50 (VCaP cells; 72 hours): < 500 nM; GI50 [2]: < 500 nM
19 | < 500 |  | COc1cc(O[C@H]2CC[C@H](NC(=O)c3ccc(N4CCC5(CCN(c6ccc(C7=N[C@@H](C)c8nnc(C)n8-c8sc(C)c(C)c87)cc6)CC56CCC6)C4)nn3)CC2)ccc1C#N (stereo partly drawn) [Compound I-130] | < 500 |  |  | 
20 | < 500 |  | COc1cc(O[C@H]2CC[C@H](NC(=O)c3ccc(N4CCC5(CCCN(c6ccc(C7=N[C@@H](C)c8nnc(C)n8-c8sc(C)c(C)c87)cc6)C5)C4)nn3)CC2)ccc1C#N (stereo partly drawn) [Compound I-82, N-((1r,4r)-4-(4-cyano-3-methoxyphenoxy)cyclohexyl)-6-(7-(4-((S)-2,3,6,9-tetramethyl-6H-thieno[3,2-f][1,2,4]triazolo[4,3-a][1,4]diazepin-4-yl)phenyl)-2,7-diazaspiro[4.5]decan-2-yl) pyridazine-3-carboxamide] | < 500 |  |  | 
21 | < 500 |  | COc1cc(O[C@H]2CC[C@H](NC(=O)c3ccc(N4CCCC5(CCN(c6ccc(C7=N[C@@H](C)c8nnc(C)n8-c8sc(C)c(C)c87)cc6)CC5)C4)nn3)CC2)ccc1C#N [Compound I-18] |  |  |  | 
